# Results published in ChEMBL document CHEMBL4184096 (Bioorg Med Chem Lett, 2018).
# What was measured:
# [1] = target: T1, KvLQT1/minK (Kv7.1/minK) potassium channel (Homo sapiens, UniProt P51787+Q8N4C8); assay: Inhibition of human KvLQT1/minK channel expressed in CHO cells at 1 uM at holding potential of -80 mV by whole cell patch clamp assay relative to control; format: cell-based; conditions: CHO cells expressing human KvLQT1/minK channel
# [2] = target: T1, KvLQT1/minK (Kv7.1/minK) potassium channel; assay: Inhibition of human KvLQT1/minK channel expressed in CHO cells at 10 uM at holding potential of -80 mV by whole cell patch clamp assay relative to control; format: cell-based; conditions: CHO cells expressing human KvLQT1/minK channel
# [3] = target: Sodium channel protein type 5 subunit alpha (Homo sapiens, UniProt Q14524); assay: Inhibition of human Nav1.5 channel expressed in HEK293 cells at holding potential of -70 mV by whole cell patch clamp assay; format: cell-based
# Sodium channel protein type 5 subunit alpha, sequence (Q14524 whole entry): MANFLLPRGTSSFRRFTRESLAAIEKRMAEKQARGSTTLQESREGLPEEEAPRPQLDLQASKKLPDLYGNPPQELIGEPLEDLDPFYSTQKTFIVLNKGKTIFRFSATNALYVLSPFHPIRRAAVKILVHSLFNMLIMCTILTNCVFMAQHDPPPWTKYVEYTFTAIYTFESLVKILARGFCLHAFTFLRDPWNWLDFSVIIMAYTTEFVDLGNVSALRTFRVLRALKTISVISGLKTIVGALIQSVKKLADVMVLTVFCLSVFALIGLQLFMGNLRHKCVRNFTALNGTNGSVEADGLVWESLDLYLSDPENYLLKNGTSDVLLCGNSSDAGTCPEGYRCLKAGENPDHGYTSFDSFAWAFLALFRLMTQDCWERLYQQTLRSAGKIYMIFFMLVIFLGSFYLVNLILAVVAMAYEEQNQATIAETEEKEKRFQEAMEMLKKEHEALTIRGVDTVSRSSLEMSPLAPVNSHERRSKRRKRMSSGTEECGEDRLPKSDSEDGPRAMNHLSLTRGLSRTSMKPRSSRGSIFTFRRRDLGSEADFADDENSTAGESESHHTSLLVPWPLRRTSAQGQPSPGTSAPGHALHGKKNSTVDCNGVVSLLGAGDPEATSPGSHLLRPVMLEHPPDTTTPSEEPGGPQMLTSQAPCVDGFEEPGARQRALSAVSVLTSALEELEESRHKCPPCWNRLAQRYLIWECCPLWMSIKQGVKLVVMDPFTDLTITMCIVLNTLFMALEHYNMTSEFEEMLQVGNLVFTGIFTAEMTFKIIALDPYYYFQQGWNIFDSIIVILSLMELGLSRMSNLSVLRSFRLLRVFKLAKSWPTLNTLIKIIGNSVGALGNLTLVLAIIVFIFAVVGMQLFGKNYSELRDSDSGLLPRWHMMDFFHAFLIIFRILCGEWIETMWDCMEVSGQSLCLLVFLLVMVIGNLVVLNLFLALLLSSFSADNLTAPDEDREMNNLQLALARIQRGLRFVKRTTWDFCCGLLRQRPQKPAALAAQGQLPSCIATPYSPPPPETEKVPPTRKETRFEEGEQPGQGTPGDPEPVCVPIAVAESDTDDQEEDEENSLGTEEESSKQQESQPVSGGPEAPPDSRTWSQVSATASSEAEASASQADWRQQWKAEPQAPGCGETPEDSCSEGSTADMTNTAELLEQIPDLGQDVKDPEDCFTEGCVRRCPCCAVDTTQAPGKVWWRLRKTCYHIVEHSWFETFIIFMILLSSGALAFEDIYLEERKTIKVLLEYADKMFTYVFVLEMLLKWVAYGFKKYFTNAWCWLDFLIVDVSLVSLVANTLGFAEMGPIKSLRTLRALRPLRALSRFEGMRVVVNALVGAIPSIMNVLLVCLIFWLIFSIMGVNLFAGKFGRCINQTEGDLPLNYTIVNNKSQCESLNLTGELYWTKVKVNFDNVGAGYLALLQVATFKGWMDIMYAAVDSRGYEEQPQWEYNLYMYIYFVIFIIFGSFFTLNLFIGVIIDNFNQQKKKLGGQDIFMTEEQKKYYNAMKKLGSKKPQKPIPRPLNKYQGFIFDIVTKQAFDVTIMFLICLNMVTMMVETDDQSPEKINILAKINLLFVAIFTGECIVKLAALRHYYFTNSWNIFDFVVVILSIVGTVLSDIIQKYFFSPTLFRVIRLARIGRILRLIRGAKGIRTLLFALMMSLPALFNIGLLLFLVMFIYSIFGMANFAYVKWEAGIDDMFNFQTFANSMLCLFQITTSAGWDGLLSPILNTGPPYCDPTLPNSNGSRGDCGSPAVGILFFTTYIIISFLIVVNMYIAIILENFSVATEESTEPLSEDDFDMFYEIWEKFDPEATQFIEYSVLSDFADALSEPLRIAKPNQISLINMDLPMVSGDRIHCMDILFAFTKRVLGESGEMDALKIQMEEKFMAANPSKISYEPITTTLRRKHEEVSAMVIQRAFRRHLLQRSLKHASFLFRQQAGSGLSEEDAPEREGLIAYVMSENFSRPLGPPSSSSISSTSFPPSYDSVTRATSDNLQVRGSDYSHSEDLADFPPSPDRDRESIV
# [4] = Plasma concentration in human cardiac arrhythmia model; format: ADME, cell-free
# [5] = Protein binding to human plasma at 30 to 1000 ng/ml after 2 to 6 hrs by LC-MS/MS based rapid equilibrium dialysis method; format: ADME, cell-free; conditions: read-out: PPB (converted)
# [6] = Fraction unbound in human plasma at 30 to 1000 ng/ml after 2 to 6 hrs by LC-MS/MS based rapid equilibrium dialysis method; format: ADME, cell-free
# [7] = target: T2, Voltage-gated inwardly rectifying potassium channel KCNH2 (Homo sapiens, UniProt Q12809); assay: Inhibition of human ERG expressed in HEK293 cells by patch clamp assay; format: cell-based
# [8] = target: T2, Voltage-gated inwardly rectifying potassium channel KCNH2; assay: Inhibition of human ERG expressed in HEK293 cells at holding potential of -80 mV by whole cell patch clamp assay; format: cell-based
# [9] = target: hERG (KCNH2) (Homo sapiens, UniProt Q12809); assay: Inhibition of human ERG expressed in HEK293 cells at 30 nM at holding potential of -80 mV by whole cell patch clamp assay relative to control; format: cell-based; conditions: HEK293 cells expressing human ERG
# T1 sequence (P51787 whole entry): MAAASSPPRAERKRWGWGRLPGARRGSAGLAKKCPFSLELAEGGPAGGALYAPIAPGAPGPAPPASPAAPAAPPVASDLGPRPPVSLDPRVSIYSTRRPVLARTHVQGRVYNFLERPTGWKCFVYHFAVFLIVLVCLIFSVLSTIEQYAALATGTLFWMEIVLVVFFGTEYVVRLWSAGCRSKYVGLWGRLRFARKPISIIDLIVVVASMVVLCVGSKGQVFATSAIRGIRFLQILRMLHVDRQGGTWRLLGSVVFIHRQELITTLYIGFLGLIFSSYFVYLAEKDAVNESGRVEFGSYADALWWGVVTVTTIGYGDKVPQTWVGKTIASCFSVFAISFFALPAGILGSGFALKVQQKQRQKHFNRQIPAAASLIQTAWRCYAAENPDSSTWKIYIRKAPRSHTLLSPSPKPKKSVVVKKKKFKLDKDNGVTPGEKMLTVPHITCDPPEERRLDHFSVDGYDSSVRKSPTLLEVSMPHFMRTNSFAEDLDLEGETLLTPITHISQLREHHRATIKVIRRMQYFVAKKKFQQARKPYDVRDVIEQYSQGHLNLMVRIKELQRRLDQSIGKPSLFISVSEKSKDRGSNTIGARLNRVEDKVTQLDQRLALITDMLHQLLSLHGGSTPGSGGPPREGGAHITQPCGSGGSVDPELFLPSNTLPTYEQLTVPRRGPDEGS
# T1 sequence (Q8N4C8 whole entry): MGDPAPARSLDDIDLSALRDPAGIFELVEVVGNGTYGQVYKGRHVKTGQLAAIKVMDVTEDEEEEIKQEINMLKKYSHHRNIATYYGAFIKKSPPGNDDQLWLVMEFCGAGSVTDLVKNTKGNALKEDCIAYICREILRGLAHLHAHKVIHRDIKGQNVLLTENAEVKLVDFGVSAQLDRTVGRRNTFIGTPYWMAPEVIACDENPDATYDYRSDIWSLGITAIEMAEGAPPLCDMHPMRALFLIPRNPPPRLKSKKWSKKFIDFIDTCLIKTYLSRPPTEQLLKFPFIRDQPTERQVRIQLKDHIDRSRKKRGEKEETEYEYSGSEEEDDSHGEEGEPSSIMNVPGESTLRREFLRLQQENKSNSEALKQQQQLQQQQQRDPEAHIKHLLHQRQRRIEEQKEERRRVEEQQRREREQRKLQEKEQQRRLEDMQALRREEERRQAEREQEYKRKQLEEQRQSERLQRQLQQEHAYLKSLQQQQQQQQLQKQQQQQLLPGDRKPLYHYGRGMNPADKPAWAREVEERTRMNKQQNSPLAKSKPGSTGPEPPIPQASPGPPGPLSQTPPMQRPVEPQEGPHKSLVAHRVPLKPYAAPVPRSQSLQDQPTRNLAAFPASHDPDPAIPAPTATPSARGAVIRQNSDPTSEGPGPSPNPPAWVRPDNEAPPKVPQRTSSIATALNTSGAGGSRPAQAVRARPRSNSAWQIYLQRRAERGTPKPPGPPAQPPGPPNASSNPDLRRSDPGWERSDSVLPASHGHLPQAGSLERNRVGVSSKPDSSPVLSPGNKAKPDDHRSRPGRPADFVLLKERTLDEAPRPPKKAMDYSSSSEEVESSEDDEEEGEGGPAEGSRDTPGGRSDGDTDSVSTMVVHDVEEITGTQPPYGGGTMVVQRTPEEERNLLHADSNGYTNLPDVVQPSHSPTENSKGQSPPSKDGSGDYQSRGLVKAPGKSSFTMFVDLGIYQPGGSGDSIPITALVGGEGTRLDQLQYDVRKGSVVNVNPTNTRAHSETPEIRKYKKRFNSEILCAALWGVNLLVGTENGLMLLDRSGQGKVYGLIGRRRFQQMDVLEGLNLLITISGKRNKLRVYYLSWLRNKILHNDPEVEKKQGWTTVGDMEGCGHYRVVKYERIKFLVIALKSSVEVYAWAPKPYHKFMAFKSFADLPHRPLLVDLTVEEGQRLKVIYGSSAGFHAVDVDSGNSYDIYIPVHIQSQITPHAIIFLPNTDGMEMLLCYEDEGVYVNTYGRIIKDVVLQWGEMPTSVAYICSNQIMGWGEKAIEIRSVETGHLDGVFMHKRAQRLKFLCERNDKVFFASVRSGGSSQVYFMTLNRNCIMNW
SMILES,inhibition at 1 µM [1] [%],inhibition at 10 µM [2] [%],IC50 [3] [nM],Cp [4] [ng/mL],fraction unbound [5],Cp(f) [6] [nM],inhibition (INH) [7] [%],IC50 [8] [nM],inhibition at 0.03 µM [9] [%]
CN(C)C(=O)C(CCN1CCC(O)(c2ccc(Cl)cc2)CC1)(c1ccccc1)c1ccccc1 [LOPERAMIDE],17,65,239,76 to 120,0.03 to 0.05,6.3 to 10,20,,
CNC(=O)C(CCN1CCC(O)(c2ccc(Cl)cc2)CC1)(c1ccccc1)c1ccccc1,4,23,483,560 to 630,0.043,48 to 54,,245,5.9
